Experimental data published in patent US20080096909A1, “APOMORPHINE INHIBITORS OF AMYLOID-BETA (ABETA) FIBRIL FORMATION AND THEIR USE IN AMYLOIDOSIS BASED DISEASE” (priority 2001, published 2008).
Structures can show the parent of a compound that is named as a salt.

Columns and labels:
Aβ 1-40 [1] = target: T1, Aβ 1-40 (Homo sapiens, UniProt P05067); test: Aβ 1-40 fibril formation inhibition judged by ThT, sedimentation velocity and electron microscopy; settings: Aβ 1-40 100 μM; for Effect on Aβ 1-40 fibril formation (ThT, sedimentation velocity, EM): pH 7.4, 37° C., 3 days
Aβ 1-40 [2] = target: T1, Aβ 1-40; test: Sedimentation velocity of Aβ quaternary structures in the presence of inhibitors; format: biochemical; set-up: Amyloid-β (Aβ 1-40) was purchased from California Peptides (Lot # SF104); purchased California Peptides Lot # SF104; settings: for Amount of nonfibrillar assemblies (protofibrils) formed by Aβ alone relative to that obtained in the presence of compound: 20 hour incubation; for Sedimentation velocities, 20 h (average sedimentation coefficient): Aβ 1-40 100 μM + compound 100 μM, 37° C.
Protocol: Probing the Mechanism of Amyloid Fibril Formation Inhibition using Sedimentation Velocity Experiments. To probe the mechanism by which apomorphine and its structural analogues inhibit Aβ fibril formation, sedimentation velocity was used to determine the distribution and molecular size of quaternary structures of Aβ in the presence and absence of inhibitors. Aβ samples (100 μM) in a pH 7.4 buffer (50 mM Tris-HCl, 150 mM NaCl) were incubated at 37° C. for 1-10 days in the presence and absence of inhibitors, then transferred to 25° C. for 1-3 hours before the sedimentation experiments were carried out at 20° C. The sedimentation properties of Aβ 1-40 in the absence and presence of inhibitors were obtained from data collected on a temperature controlled Beckman XL-1 using 400-420 μL of peptide solutions and data were recorded at rotor speeds of 3,000-30,000 rpm in continuous mode with a step size of 0.005 cm. The sedimentation velocity absorbance profiles were then analyzed using the time derivative (dc/dt) analysis program, which was provided by J. Philo, to obtain the sedimentation coefficient distribution g(*s) for all the quaternary structures in solution as described previously (37, 38).
Fitting of the g(*s) profiles allows for the determination of the sedimentation coefficient (peak position, with a unit of Svedberg, 1 S=10^−13 s) and the diffusion coefficient (from the peak width, with a unit of Fick, 1 F=[…]). This method has the advantage of allowing for the calculation of the molecular weight of the sedimenting species using equation II since s and D can be obtained from the fitting analysis. [formula]
In the cases where the diffusion coefficient cannot be determined accurately, the molecular weight of a spherical protein can still be estimated by combining the Svedberg equation and Stokes equation for the frictional coefficient to obtain equation III which utilizes the estimated sedimentation coefficient: [formula]
Sedimentation velocity was also used to determine the amount of soluble Aβ and Aβ monomer in solution after sedimentation of Aβ aggregates. […] The percent of monomeric species in solution was calculated using equation IV at 50,000 rpm and after complete sedimentation of Aβ high MW oligomeric species. Sedimentation equilibrium studies of the unsedimented species were carried out to determine whether a monomer, dimer or a mixture was present in solution. % of unsedimented Aβ=1−(Absorbance(290 nm, 3000 rpm)−Absorbance(290 nm, 20,000-30,000 rpm))×100 (IV)

Aβ 1-40 [3] = target: T1, Aβ 1-40; test: Thioflavin T (ThT) fluorescence assay for fibril formation; format: biochemical; set-up: Amyloid-β (Aβ 1-40) was purchased from California Peptides (Lot # SF104); purchased California Peptides Lot # SF104; settings: for Thioflavin T signal after longer incubation: longer incubation at 37° C., some long fibrils formed; for Thioflavin T signal with sodium metabisulphite added: stock solutions containing 1% (v/v) sodium metabisulphite, 37° C., pH 7.4, 3 days
Protocol: Preparation of Stock Peptide Solutions for Fibrillization Studies. Stock solutions of the inhibitors were prepared by dissolving the compounds at a concentration of 5-7 mM in water or in 1-1.5% DMSO solutions (for compounds with reduced solubility). Amyloid-β (Aβ 1-40) was purchased from California Peptides (Lot # SF104). Aβ 1-40 stock solutions were prepared by dissolving purified and lyophilized peptide in cold double distilled water to yield stock solutions at a concentration of 2 mg/mL. The stock solutions were used within 10-30 minutes of dissolution. Samples for fibril formation assay were prepared by diluting the appropriate amount of Aβ stock with pH 7.4 Tris-HCl buffer (50 mM Tris, 150 mM NaCl) to afford a final peptide concentration of 100 μM. […] Analytical ultracentrifugation, and electron microscopy were periodically used to ensure that we start our experiments with a hydrodynamically defined Aβ monomer, and the absence of any preformed fibrils in solution.
Thioflavin T (ThT) Fluorescence Assay for Fibril Formation. Thioflavin T was purchased from Aldrich (70% purity) and was recrystallized from benzene/ethanol (1:1) to afford yellow crystals (36). Thioflavin T binding assays were performed by addition of 50 μL of 100 μM Aβ solutions, which were incubated at 37° C. in the absence and presence of inhibitors, to 450 μL solution of 10 μM Thioflavin T in phosphate buffer (10 mM phosphate, 100 mM KCl). The solutions were mixed and fluorescence measurements were recorded in Biosystems model spectrofluorimeter at 25° C. using a 1 cm path length quartz cell. An excitation slit width of 4 nm and an emission slit width of 8 nm were employed. The excitation wavelength was set to 450 nm and emission monitored from 460-630 nm. The relative fluorescence at 482 nm was plotted for each sample, and was used as a measure of the amount of fibrillar aggregates in solution.

Aβ 1-40 [4] = target: T1, Aβ 1-40; test: Electron microscopy of Aβ aggregates in the presence of inhibitor; format: biochemical; set-up: Amyloid-β (Aβ 1-40) was purchased from California Peptides (Lot # SF104); purchased California Peptides Lot # SF104; settings: for Protofibril assembly into fibrils when compound is added to pre-incubated Aβ (EM and sedimentation velocity): Aβ pre-incubated 18-20 hr at 37° C., then three to nine days with compound
Protocol: Electron Microscopy. Electron microscopy was used to follow the changes in size and structural morphology of Aβ aggregates in the presence and absence of inhibitor at 37° C. as a function of time. EM samples were prepared by placing 5 μL of the Aβ solution on a carbon-coated grid and allowing the solution to stand for 2 min before removing excess solution. The grid was then washed once with distilled water and once with 1% uranyl acetate before staining the sample with fresh 1% uranyl acetate for another 2 min. The samples were then studied in a Phillips CM-100 electron microscope. The grids were thoroughly examined to get an overall statistical evaluation of the structures present in the sample. All electron micrographs were taken at 100 kV.

[5] = Aβ coincubated with D030, 11 days at 37° C.

T1 sequence (P05067 672-711): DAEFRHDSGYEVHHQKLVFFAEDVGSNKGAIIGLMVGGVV

Row | Compound | Effect on Aβ 1-40 fibril formation (ThT, sedimentation velocity, EM) (Aβ 1-40 [1]) | Amount of nonfibrillar assemblies (protofibrils) formed by Aβ alone relative to that obtained in the presence of compound (Aβ 1-40 [2]) | Sedimentation velocities, 20 h (average sedimentation coefficient) (Aβ 1-40 [2]) | Thioflavin T signal after longer incubation (Aβ 1-40 [3]) | Thioflavin T signal with sodium metabisulphite added (Aβ 1-40 [3]) | Protofibril assembly into fibrils when compound is added to pre-incubated Aβ (EM and sedimentation velocity) (Aβ 1-40 [4]) | other results
1 | COc1ccc2c(c1O)-c1c(OC)c(OC)cc3c1[C@H](C2)N(C)CC3.Cl [isocrydine, Isocrydine hydrochloride] | showed no effect |  |  |  |  |  | 
2 | COc1ccc2c(c1O)-c1c3c(cc4c1[C@H](C2)N(C)CC4)OCO3 [bulbocapnine, Bulbocapnine hydrochloride] | showed no effect |  |  |  |  |  | 
3 | Br.Oc1ccc2c(c1O)-c1cccc3c1[C@@H](C2)NCC3 [D040, R(−)-Norapomorphine hydrobromide] |  | ~30% | 31 S | did not exhibit any changes | restoration of the ThT signal | exhibited similar behavior | 
4 | CCCN1CCc2cccc3c2[C@H]1Cc1ccc2c(c1-3)OCO2.Cl [M121, R(−)-10,11-Methylenedioxy-N-n-propylnoraporphine hydrochloride] | showed no effect |  |  |  |  |  | 
5 | Br.CCCN1CCc2cc(O)cc3c2[C@H]1Cc1ccc(O)c(O)c1-3 [D029, R(−)-2,10,11-Trihydroxy-N-propylnorapomorphine hydrobromide] |  | ~30% | 35 S | did not exhibit any changes | restoration of the ThT signal | exhibited similar behavior | 
6 | COc1ccc2c(c1O)-c1cccc3c1[C@@H](C2)N(C)CC3.Cl [R(−)-apocodeine, R(−)-Apocodeine hydrochloride] | showed no effect |  |  |  |  |  | 
7 | CCCN1CCc2cccc3c2[C@H]1Cc1ccc(O)c(O)c1-3.Cl [D027, R(−)-Propylnorapomorphine hydrochloride] |  | ~30% | 33 S | did not exhibit any changes | restoration of the ThT signal | no fibril formation | Inhibition of Aβ fibril formation by EM, aged or freshly prepared stock solutions (Aβ 1-40 [4]; three to four days at 37° C.): effective inhibition of Aβ fibril formation
8 | Br.CN1CCc2cc(O)cc3c2[C@H]1Cc1ccc(O)c(O)c1-3 [D030, R(−)-2,10,11-Trihydroxyaporphine hydrobromide] |  | ~30% | 33 S | did not exhibit any changes | restoration of the ThT signal | least effective compound towards inhibiting protofibril assembly into fibrils | Thioflavin T signal after 11 days (Aβ 1-40 [3]; [5]): did not show a ThT signal; Incubation period during which nonfibrillar assemblies remain the dominant species (EM and sedimentation velocity) (Aβ 1-40 [4]; 37° C., incubation extended to nine days): 1 to 3 days; Structures seen by EM after 9 days (Aβ 1-40 [4]; Aβ 100 μM, pH 7.4, 9 days at 37° C.): accumulation of some long fibrils in solution; Structures seen by EM after 11 days (Aβ 1-40 [4]; [5]): significant amounts of fibrils in solution; Concentration at which Aβ 1-40 fibril formation is inhibited (Aβ 1-40 [1]; incubation period of three days): 100 µM
